Common to all, as to assay: TR-FRET enzymatic activity assay against PI3K isoforms
Assay type in all cases: biochemical
On the technique in general: In TR-FRET formats the signal depends on donor and acceptor labels being close together.

The target of one test is PI3Kβ (Homo sapiens (Human), UniProt P42338). The following applies: PI3Kβ, TR-FRET, 2×Km ATP, 30 minutes at 25° C. The source says:
(§1) The compounds of formula (I) were characterized for their enzymatic activity against the PI3K isoforms. […] TR-FRET monitored the formation of 3,4,5-inositol triphosphate molecule that competed with fluorescently labeled PIP3 for binding to the GRP-1 pleckstrin homology domain protein.

Another test has as its target PI3Kγ (Homo sapiens (Human), UniProt P48736). The following applies: 2×Km ATP, 30 minutes at 25° C.
Description: as §1

In another test the target is PI3Kδ (Homo sapiens (Human), UniProt O00329). Particulars: 2×Km ATP, 30 minutes at 25° C.
Description: as §1

Drawing on patent US11021467B2, “Phosphatidylinositol 3-kinase inhibitors” (Gilead Sciences, Inc., priority 2014, dated 2021), this text covers IC50 for 23 molecules.

Chain of PI3Kβ (P42338 whole entry, the tested form may be a part, canonical isoform): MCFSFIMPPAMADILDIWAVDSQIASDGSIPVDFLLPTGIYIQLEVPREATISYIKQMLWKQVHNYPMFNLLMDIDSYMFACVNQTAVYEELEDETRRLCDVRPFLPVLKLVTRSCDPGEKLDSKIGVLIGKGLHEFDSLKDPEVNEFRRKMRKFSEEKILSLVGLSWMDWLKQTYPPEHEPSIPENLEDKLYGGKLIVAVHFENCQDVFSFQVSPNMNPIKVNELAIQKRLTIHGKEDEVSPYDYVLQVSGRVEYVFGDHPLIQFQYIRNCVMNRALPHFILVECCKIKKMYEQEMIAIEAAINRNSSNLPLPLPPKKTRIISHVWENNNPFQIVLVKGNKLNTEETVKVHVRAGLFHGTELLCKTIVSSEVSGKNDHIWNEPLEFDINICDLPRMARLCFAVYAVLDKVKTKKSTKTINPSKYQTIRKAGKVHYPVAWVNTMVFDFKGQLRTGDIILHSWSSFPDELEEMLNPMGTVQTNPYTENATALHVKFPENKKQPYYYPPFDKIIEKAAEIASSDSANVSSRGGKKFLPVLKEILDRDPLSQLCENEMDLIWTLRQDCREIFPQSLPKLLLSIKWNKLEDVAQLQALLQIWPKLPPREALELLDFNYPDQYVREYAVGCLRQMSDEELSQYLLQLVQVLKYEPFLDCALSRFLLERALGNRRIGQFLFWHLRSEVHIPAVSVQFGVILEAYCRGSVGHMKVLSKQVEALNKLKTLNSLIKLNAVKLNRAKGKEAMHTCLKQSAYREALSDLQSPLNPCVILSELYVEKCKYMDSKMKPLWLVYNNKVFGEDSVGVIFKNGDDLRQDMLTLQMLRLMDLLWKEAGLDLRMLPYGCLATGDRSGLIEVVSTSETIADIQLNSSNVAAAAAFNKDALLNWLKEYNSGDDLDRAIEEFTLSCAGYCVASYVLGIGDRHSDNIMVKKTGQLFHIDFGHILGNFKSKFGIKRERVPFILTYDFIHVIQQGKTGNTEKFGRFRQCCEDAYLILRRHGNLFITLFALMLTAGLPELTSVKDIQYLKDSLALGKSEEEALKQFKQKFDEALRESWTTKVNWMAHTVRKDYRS
Chain of PI3Kβ (P27986 whole entry partner, the tested form may be a part, canonical isoform): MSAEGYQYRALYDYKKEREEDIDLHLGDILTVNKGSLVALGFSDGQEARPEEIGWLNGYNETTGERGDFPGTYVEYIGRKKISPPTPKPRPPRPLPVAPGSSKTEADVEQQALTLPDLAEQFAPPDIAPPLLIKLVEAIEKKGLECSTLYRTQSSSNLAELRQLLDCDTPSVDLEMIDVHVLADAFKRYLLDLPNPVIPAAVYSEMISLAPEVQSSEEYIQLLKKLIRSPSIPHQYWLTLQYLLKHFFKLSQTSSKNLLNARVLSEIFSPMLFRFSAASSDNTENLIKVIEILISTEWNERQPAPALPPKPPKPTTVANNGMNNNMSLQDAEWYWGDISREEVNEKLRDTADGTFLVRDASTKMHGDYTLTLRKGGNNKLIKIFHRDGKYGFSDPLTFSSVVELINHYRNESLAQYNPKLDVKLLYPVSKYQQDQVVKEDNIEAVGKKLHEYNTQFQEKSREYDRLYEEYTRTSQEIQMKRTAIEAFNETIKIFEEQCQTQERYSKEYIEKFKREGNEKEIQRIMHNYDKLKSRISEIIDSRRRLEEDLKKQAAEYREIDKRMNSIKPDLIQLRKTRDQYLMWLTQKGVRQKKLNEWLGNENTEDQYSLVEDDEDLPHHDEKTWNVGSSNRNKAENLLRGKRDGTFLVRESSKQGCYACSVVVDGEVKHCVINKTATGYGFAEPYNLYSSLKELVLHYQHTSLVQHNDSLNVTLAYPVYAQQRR
Chain of PI3Kγ (P48736 whole entry): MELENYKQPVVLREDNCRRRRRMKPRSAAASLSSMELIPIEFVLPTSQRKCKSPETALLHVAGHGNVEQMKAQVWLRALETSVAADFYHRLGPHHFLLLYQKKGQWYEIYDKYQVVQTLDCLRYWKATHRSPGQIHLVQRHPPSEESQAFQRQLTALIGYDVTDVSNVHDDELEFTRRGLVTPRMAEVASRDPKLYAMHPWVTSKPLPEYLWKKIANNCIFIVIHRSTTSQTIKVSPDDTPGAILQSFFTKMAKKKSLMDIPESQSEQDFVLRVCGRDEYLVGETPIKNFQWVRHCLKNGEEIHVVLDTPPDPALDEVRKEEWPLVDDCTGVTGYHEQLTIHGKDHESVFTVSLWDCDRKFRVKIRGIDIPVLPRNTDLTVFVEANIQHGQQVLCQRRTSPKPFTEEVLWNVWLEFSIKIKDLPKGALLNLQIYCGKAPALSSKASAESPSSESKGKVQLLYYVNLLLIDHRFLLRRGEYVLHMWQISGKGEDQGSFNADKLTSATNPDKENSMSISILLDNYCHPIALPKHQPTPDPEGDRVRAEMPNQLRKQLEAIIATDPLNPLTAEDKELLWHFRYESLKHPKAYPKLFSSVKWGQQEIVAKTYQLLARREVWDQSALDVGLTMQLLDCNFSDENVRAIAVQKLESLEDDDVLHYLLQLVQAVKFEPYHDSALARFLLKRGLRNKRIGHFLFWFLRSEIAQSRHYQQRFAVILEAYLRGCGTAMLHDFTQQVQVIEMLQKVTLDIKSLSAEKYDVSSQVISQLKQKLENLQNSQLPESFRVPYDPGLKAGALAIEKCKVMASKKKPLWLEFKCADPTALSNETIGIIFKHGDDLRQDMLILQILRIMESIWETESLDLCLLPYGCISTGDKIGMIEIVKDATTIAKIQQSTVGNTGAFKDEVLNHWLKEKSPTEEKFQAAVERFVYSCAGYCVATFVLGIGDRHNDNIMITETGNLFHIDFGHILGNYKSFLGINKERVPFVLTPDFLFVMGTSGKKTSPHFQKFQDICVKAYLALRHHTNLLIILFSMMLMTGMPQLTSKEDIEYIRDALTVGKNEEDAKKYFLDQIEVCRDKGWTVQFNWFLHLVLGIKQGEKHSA
Chain of PI3Kδ (O00329 whole entry): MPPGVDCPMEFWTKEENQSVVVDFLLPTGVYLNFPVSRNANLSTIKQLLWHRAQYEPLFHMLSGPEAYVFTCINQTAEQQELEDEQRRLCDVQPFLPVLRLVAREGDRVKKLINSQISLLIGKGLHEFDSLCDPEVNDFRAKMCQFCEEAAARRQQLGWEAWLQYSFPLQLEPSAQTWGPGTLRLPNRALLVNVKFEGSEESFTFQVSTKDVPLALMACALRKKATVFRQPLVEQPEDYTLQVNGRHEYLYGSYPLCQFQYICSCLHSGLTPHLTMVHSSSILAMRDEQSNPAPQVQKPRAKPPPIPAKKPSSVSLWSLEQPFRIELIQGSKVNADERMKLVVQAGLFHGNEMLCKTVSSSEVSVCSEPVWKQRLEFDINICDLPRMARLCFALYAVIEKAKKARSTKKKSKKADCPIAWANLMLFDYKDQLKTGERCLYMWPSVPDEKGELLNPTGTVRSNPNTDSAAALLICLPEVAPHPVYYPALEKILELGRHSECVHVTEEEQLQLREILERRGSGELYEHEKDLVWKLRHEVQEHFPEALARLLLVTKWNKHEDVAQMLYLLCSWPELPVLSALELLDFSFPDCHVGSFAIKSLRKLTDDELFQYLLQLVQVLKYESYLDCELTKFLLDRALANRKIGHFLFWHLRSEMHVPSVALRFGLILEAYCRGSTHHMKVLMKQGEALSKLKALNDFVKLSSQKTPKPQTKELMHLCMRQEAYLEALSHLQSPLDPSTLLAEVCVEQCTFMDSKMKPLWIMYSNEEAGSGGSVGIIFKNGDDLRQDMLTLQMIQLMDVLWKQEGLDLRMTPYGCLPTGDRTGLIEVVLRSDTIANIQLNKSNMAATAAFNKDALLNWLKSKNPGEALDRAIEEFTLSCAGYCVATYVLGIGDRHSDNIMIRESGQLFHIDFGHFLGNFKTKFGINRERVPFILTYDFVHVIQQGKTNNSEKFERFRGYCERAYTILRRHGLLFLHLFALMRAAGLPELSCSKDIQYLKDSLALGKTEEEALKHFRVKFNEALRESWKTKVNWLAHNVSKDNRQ
Chain of PI3Kδ (P27986 whole entry partner): as the sequence (P27986 whole entry partner, the tested form may be a part, canonical isoform) above

A word on the IC50: it is the concentration needed to halve the response being measured. A higher IC50 goes with lower potency. Regarding `C[C@H](Nc1ncnc(N)c1C#N)c1nc2cccc(Cl)c2c(=O)n1CCCN` [Compound 73, (S)-4-amino-6-((1-(3-(3-aminopropyl)-5-chloro-4-oxo-3,4-dihydroquinazolin-2-yl)ethyl)amino)pyrimidine-5-carbonitrile], the concentration for half-maximal inhibition (IC50) worked out at 21 nM against PI3Kβ, 9400 nM at PI3Kγ and 6 nM at PI3Kδ.
As to `CC(C)NCC(O)CCn1c([C@H](C)Nc2nc(N)nc(N)c2C#N)nc2cccc(Cl)c2c1=O` (stereo partly drawn) [Compound 74, 2,4-diamino-6-(((1S)-1-(5-chloro-3-(3-hydroxy-4-(isopropylamino)butyl)-4-oxo-3,4-dihydroquinazolin-2-yl)ethyl)amino)pyrimidine-5-carbonitrile], the IC50 against PI3Kβ was 17 nM; against PI3Kγ, 1620 nM; against PI3Kδ, 1 nM.
For `C[C@H](Nc1nc(N)nc(N)c1C#N)c1nc2cccc(Cl)c2c(=O)n1CCC(O)CNC(C)(C)C` (stereo partly drawn) [Compound 75, 2,4-diamino-6-(((1S)-1-(3-(4-(tert-butylamino)-3-hydroxybutyl)-5-chloro-4-oxo-3,4-dihydroquinazolin-2-yl)ethyl)amino)pyrimidine-5-carbonitrile], in that order: 19 nM, 2300 nM and 1 nM.
The like results for `C[C@H](Nc1nc(N)nc(N)c1C#N)c1nc2cccc(Cl)c2c(=O)n1Cc1cc[nH]n1` [Compound 76, (S)-4-((1-(3-((1H-pyrazol-3-yl)methyl)-5-chloro-4-oxo-3,4-dihydroquinazolin-2-yl)ethyl)amino)-2,6-diaminopyrimidine-5-carbonitrile] were, in that order, 46 nM, 160 nM and 2 nM.
Turning to `C[C@H](Nc1ncnc(N)c1C#N)c1nc2cccc(Cl)c2c(=O)n1Cc1cc[nH]n1` [Compound 77, (S)-4-((1-(3-((1H-pyrazol-3-yl)methyl)-5-chloro-4-oxo-3,4-dihydroquinazolin-2-yl)ethyl)amino)-6-aminopyrimidine-5-carbonitrile], the IC50 at PI3Kβ was 860 nM; at PI3Kγ, 7000 nM; on PI3Kδ, 33 nM.
For `C[C@H](Nc1ncnn2ccnc12)c1nc2cccc(Cl)c2c(=O)n1Cc1cc[nH]n1` [Compound 78, (S)-3-((1H-pyrazol-3-yl)methyl)-5-chloro-2-(1-(imidazo[2,1-f][1,2,4]triazin-4-ylamino)ethyl)quinazolin-4(3H)-one], in that order: 920 nM, 3000 nM and 49 nM.
For `C[C@H](Nc1nc(N)nc(N)c1C#N)c1nc2cccc(Cl)c2c(=O)n1Cc1cn[nH]c1` [Compound 79, (S)-4-((1-(3-((1H-pyrazol-4-yl)methyl)-5-chloro-4-oxo-3,4-dihydroquinazolin-2-yl)ethyl)amino)-2,6-diaminopyrimidine-5-carbonitrile], in that order: 40 nM, 380 nM and 2 nM.
For `C[C@H](Nc1nc(N)nc(N)c1C#N)c1nc2cccc(Cl)c2c(=O)n1Cc1ncc[nH]1` [Compound 80, (S)-4-((1-(3-((1H-imidazol-2-yl)methyl)-5-chloro-4-oxo-3,4-dihydroquinazolin-2-yl)ethyl)amino)-2,6-diaminopyrimidine-5-carbonitrile], in that order: 1100 nM, 2400 nM and 27 nM.
Turning to `C[C@H](Nc1nc(N)nc(N)c1C#N)c1nc2cccc(Cl)c2c(=O)n1Cc1nc[nH]n1` [Compound 81, (S)-4-((1-(3-((1H-1,2,4-triazol-3-yl)methyl)-5-chloro-4-oxo-3,4-dihydroquinazolin-2-yl)ethyl)amino)-2,6-diaminopyrimidine-5-carbonitrile], the results for the IC50 against PI3Kβ, at PI3Kγ and against PI3Kδ were 47 nM, 320 nM and 5 nM, respectively.
On to `C[C@H](Nc1ncnc(N)c1C#N)c1nc2cccc(Cl)c2c(=O)n1[C@H]1C[C@@H](O)C1` [Compound 82, 4-amino-6-(((S)-1-(5-chloro-3-((1S,3R)-3-hydroxycyclobutyl)-4-oxo-3,4-dihydroquinazolin-2-yl)ethyl)amino)pyrimidine-5-carbonitrile], for which the values for the IC50 at PI3Kβ, on PI3Kγ and at PI3Kδ were 150 nM, 2300 nM and 5 nM, respectively.
As to `C[C@H](Nc1ncnc(N)c1C#N)c1nc2cccc(Cl)c2c(=O)n1CCCO` [Compound 83, (S)-4-amino-6-((1-(5-chloro-3-(3-hydroxypropyl)-4-oxo-3,4-dihydroquinazolin-2-yl)ethyl)amino)pyrimidine-5-carbonitrile], the IC50 was 180 nM against PI3Kβ, 2900 nM against PI3Kγ and 6 nM against PI3Kδ.
For `CC(CCO)n1c([C@H](C)Nc2ncnc(N)c2C#N)nc2cccc(Cl)c2c1=O` (stereo partly drawn) [Compound 84, 4-amino-6-(((1S)-1-(5-chloro-3-(4-hydroxybutan-2-yl)-4-oxo-3,4-dihydroquinazolin-2-yl)ethyl)amino)pyrimidine-5-carbonitrile], in that order: 260 nM, 2900 nM and 4 nM.
For `C[C@H](Nc1ncnc(N)c1C#N)c1nc2cccc(Cl)c2c(=O)n1[C@H]1CC[C@H](O)CC1` [Compound 85, (S)-4-amino-6-((1-(5-chloro-3-(4-hydroxycyclohexyl)-4-oxo-3,4-dihydroquinazolin-2-yl)ethyl)amino)pyrimidine-5-carbonitrile], in that order: 92 nM, 1200 nM and 3 nM.
Consider `C[C@H](Nc1ncnc(N)c1C#N)c1nc2cccc(Cl)c2c(=O)n1[C@H]1C[C@H](N)C1` [Compound 86, (S)-4-amino-6-((1-(3-(3-aminocyclobutyl)-5-chloro-4-oxo-3,4-dihydroquinazolin-2-yl)ethyl)amino)pyrimidine-5-carbonitrile], for which the IC50 against PI3Kβ is 620 nM; at PI3Kγ, at least 10000 nM; at PI3Kδ, 24 nM.
In the case of `C[C@H](Nc1ncnc(N)c1C#N)c1nc2cccc(Cl)c2c(=O)n1CC1CCNCC1` [Compound 87, (S)-4-amino-6-((1-(5-chloro-4-oxo-3-(piperidin-4-ylmethyl)-3,4-dihydroquinazolin-2-yl)ethyl)amino)pyrimidine-5-carbonitrile], the IC50 was 150 nM against PI3Kβ, at least 10000 nM on PI3Kγ and 4 nM at PI3Kδ.
For `C[C@H](Nc1ncnc(N)c1C#N)c1nc2cccc(Cl)c2c(=O)n1CC1CNCCO1` (stereo partly drawn) [Compound 88, 4-amino-6-(((1S)-1-(5-chloro-3-(morpholin-2-ylmethyl)-4-oxo-3,4-dihydroquinazolin-2-yl)ethyl)amino)pyrimidine-5-carbonitrile], in that order: 250 nM, at least 10000 nM and 42 nM.
The like results for `C[C@H](Nc1ncnc(N)c1C#N)c1nc2cccc(Cl)c2c(=O)n1CC1CCNC1` (stereo partly drawn) [Compound 89, 4-amino-6-(((1S)-1-(5-chloro-4-oxo-3-(pyrrolidin-3-ylmethyl)-3,4-dihydroquinazolin-2-yl)ethyl)amino)pyrimidine-5-carbonitrile] were, in that order, 54 nM, at least 10000 nM and 3 nM.
The like results for `C[C@H](Nc1ncnc(N)c1C#N)c1nc2cccc(Cl)c2c(=O)n1CC1CCCN1` (stereo partly drawn) [Compound 90, 4-amino-6-(((1S)-1-(5-chloro-4-oxo-3-(pyrrolidin-2-ylmethyl)-3,4-dihydroquinazolin-2-yl)ethyl)amino)pyrimidine-5-carbonitrile] were, in that order, 2800 nM, at least 10000 nM and 37 nM.
Turning to `C[C@H](Nc1ncnc(N)c1C#N)c1nc2cccc(Cl)c2c(=O)n1CC1CCCCN1` (stereo partly drawn) [Compound 91, 4-amino-6-(((1S)-1-(5-chloro-4-oxo-3-(piperidin-2-ylmethyl)-3,4-dihydroquinazolin-2-yl)ethyl)amino)pyrimidine-5-carbonitrile], the IC50 against PI3Kβ is 1700 nM; against PI3Kγ, at least 10000 nM; at PI3Kδ, 95 nM.
For `C[C@H](Nc1ncnc(N)c1C#N)c1nc2cccc(Cl)c2c(=O)n1CC1CCCNC1` (stereo partly drawn) [Compound 92, 4-amino-6-(((1S)-1-(5-chloro-4-oxo-3-(piperidin-3-ylmethyl)-3,4-dihydroquinazolin-2-yl)ethyl)amino)pyrimidine-5-carbonitrile], in that order: 320 nM, at least 10000 nM and 7 nM.
For `C[C@H](Nc1nc(N)nc(N)c1C#N)c1nc2cccc(Cl)c2c(=O)n1[C@H]1C[C@@H](O)C1` [Compound 93, 2,4-diamino-6-(((S)-1-(5-chloro-3-((cis)-3-hydroxycyclobutyl)-4-oxo-3,4-dihydroquinazolin-2-yl)ethyl)amino)pyrimidine-5-carbonitrile], in that order: 4 nM, 158 nM and 1 nM.
Take `C[C@H](Nc1nc(N)nc(N)c1Cl)c1nc2cccc(Cl)c2c(=O)n1[C@H]1C[C@@H](O)C1` [Compound 94, 5-chloro-2-((S)-1-((2,6-diamino-5-chloropyrimidin-4-yl)amino)ethyl)-3-((cis)-3-hydroxycyclobutyl)quinazolin-4(3H)-one]: the half-maximal inhibitory concentration (IC50) came out at 190 nM on PI3Kβ, 1590 nM at PI3Kγ and 14 nM against PI3Kδ.
For `Nc1nc(N)c(Cl)c(N[C@H](c2nc3c(Cl)ccc(Cl)c3c(=O)n2[C@H]2C[C@@H](O)C2)C2CC2)n1` [Compound 95, 5,8-dichloro-2-((S)-cyclopropyl((2,6-diamino-5-chloropyrimidin-4-yl)amino)methyl)-3-((cis)-3-hydroxycyclobutyl)quinazolin-4(3H)-one], in that order: 720 nM, at least 10000 nM and 16 nM.
